Where a name gives a salt, the structure may show the parent alone. Read-outs that look alike come from different tables or passages of the source.
Columns and labels:
[1] = biological target: T1, SARS-CoV-2 PLpro (nsp3 1564–1878) (Severe acute respiratory syndrome coronavirus 2, UniProt P0DTD1); assay: biochemical; design: FRET-quenched peptide (Pro3) cleavage by PLpro, 10 min pre-incubation, slope over 20 min, normalised to no-compound control; conditions: low concentration screen, read-out: % of control remaining
[2] = biological target: T1, SARS-CoV-2 PLpro (nsp3 1564–1878); assay: biochemical; design: FRET-quenched peptide (Pro3) cleavage by PLpro, 10 min pre-incubation, slope over 20 min, normalised to no-compound control; conditions: high concentration screen, read-out: % of control remaining

## OC[C@H]1O[C@@H](n2cnc3c(Nc4ccccc4)ncnc32)[C@H](O)[C@@H]1O [N6-Phenyladenosine]
[1]; Well no.=1501
  remaining activity at 1.25 µM: 97.5%
[2]; Well no.=1501
  remaining activity at 3.75 µM: 100%

## CC(C)n1cnc2c(NCc3ccccc3)nc(NCCO)nc21 [N9-Isopropylolomoucine]
[1]; Well no.=716
  remaining activity at 1.25 µM: 96.5%
[2]; Well no.=716
  remaining activity at 3.75 µM: 98.5%

## CC(C)c1ccc(C(=O)N=C(N)N)cc1S(C)(=O)=O [N''-[4-isopropyl-3-(methylsulfonyl)benzoyl]guanidine]
[1]; Well no.=5586
  remaining activity at 1.25 µM: 91.7%
[2]; Well no.=5586
  remaining activity at 3.75 µM: 91.3%

## CN(C)C(=O)N=NC(=O)N(C)C [N,N,N',N'-Tetramethylazodicarboxamide]
[1]; Well no.=735
  remaining activity at 1.25 µM: 94.9%
[2]; Well no.=735
  remaining activity at 3.75 µM: 98.5%

## CC(COc1ccc(/C=C/c2ccccc2)cc1)[N+](C)(C)C (stereo not drawn) [N,N,N-trimethyl-1-(4-trans-stilbenoxy)-2-propylammonium iodide]
[1]; Well no.=1531
  remaining activity at 1.25 µM: 98.1%
[2]; Well no.=1531
  remaining activity at 3.75 µM: 99.7%

## CCCCCCN(CCCCCC)C(=O)Cc1c(-c2ccc(F)cc2)[nH]c2ccccc12 [N,N-Dihexyl-2-(4-fluorophenyl)indole-3-acetamide]
[1]; Well no.=632
  remaining activity at 1.25 µM: 99.3%
[2]; Well no.=632
  remaining activity at 3.75 µM: 96.6%

## CCCN(CCC)CCc1c[nH]c2ccc(C(N)=O)cc12 [N,N-Dipropyl-5-carboxamidotryptamine maleate]
[1]; Well no.=402
  remaining activity at 1.25 µM: 95.4%
[2]; Well no.=402
  remaining activity at 3.75 µM: 97.1%

## COc1cc2nccc(Oc3ccc(NC(=O)Nc4ccc(F)cc4F)c(F)c3)c2cc1OC [N-(2,4-Difluorophenyl)-N'-[4-[(6,7-dimethoxy-4-quinolinyl)oxy]-2-fluorophenyl]urea]
[1]; Well no.=2572
  remaining activity at 1.25 µM: 92%
[2]; Well no.=2572
  remaining activity at 3.75 µM: 98.1%

## Cc1nn(C)c2nc(NNC(=O)Nc3cc(Cl)nc(Cl)c3)cc(C(C)C)c12 [N-(2,6-dichloro-4-pyridinyl)-2-(4-isopropyl-1,3-dimethyl-1H-pyrazolo[3,4-b]pyridin-6-yl)hydrazinecarboxamide]
[1]; Well no.=5923
  remaining activity at 1.25 µM: 104%
[2]; Well no.=5923
  remaining activity at 3.75 µM: 100%

## COc1cccc(C(=O)NCCN2CCN(c3ccc(Cl)cc3)CC2)c1 [N-(2-[4-(4-Chlorophenyl)piperazin-1-yl]ethyl)-3-methoxybenzamide]
[1]; Well no.=232
  remaining activity at 1.25 µM: 99.5%
[2]; Well no.=232
  remaining activity at 3.75 µM: 99.4%

## CCCN(CCC)CC1CCCCN1CCNC(=O)N1c2ccccc2C(=O)Nc2cccnc21 (stereo not shown) [N-(2-{2-[(dipropylamino)methyl]-1-piperidinyl}ethyl)-6-oxo-5,6-dihydro-11H-pyrido[2,3-b][1,4]benzodiazepine-11-carboxamide]
[1]; Well no.=5609
  remaining activity at 1.25 µM: 101%
[2]; Well no.=5609
  remaining activity at 3.75 µM: 101%

## COc1ccc(S(=O)(=O)Nc2cc(Cl)cc(Cl)c2OC)cc1N1CCNCC1 [N-(3,5-dichloro-2-methoxyphenyl)-4-methoxy-3-(piperazin-1-yl)benzenesulfonamide hydrochloride]
[1]; Well no.=5561
  remaining activity at 1.25 µM: 97.1%
[2]; Well no.=5561
  remaining activity at 3.75 µM: 103%

## Nc1ccc(N2C(=O)c3ccccc3C2=O)c(Cl)c1 [N-(4-Amino-2-chlorophenyl)phthalimide]
[1]; Well no.=344
  remaining activity at 1.25 µM: 95.3%
[2]; Well no.=344
  remaining activity at 3.75 µM: 96.5%

## NCCCCNS(=O)(=O)c1ccc2c(Cl)cccc2c1 [N-(4-Aminobutyl)-5-chloro-2-naphthalenesulfonamide hydrochloride]
[1]; Well no.=55
  remaining activity at 1.25 µM: 104%
[2]; Well no.=55
  remaining activity at 3.75 µM: 106%

## COc1ccc2c(c1)c(CC(=O)Nc1ccc(NC(C)=O)cc1)c(C)n2C(=O)c1ccc(Cl)cc1 [N-(4-acetamidophenyl)indomethacinamide]
[1]; Well no.=343
  remaining activity at 1.25 µM: 98.3%
[2]; Well no.=343
  remaining activity at 3.75 µM: 97.9%

## CC(=O)NCCCCCN [N-(5-Aminopentyl)acetamide]
[1]; Well no.=6155
  remaining activity at 1.25 µM: 98.4%
[2]; Well no.=6155
  remaining activity at 3.75 µM: 89.4%

## COc1ccc(Cl)cc1NC(=O)Nc1cc(C)nc2ccccc12 [N-(5-Chloro-2-methoxyphenyl)-N'-(2-methyl-4-quinolinyl)urea]
[1]; Well no.=2626
  remaining activity at 1.25 µM: 100%
[2]; Well no.=2626
  remaining activity at 3.75 µM: 101%

## C#CCNCc1cc2cc(OCc3ccccc3)ccc2[nH]1 [N-((5-(benzyloxy)-1H-indol-2-yl)methyl)prop-2-yn-1-amine]
[1]; Well no.=5630
  remaining activity at 1.25 µM: 95.4%
[2]; Well no.=5630
  remaining activity at 3.75 µM: 96.5%

## CC(=O)NCCc1c[nH]c2ccc(O)cc12 [N-Acetyl-5-hydroxytryptamine]
[1]; Well no.=201
  remaining activity at 1.25 µM: 102%
[2]; Well no.=201
  remaining activity at 3.75 µM: 103%

## CC(=O)N[C@@H](CS)C(=O)O [N-Acetyl-Cysteine]
[1]; Well no.=4036
  remaining activity at 1.25 µM: 97.8%
[2]; Well no.=4036
  remaining activity at 3.75 µM: 96.7%

## CC(=O)N[C@@H]1[C@@H](O)[C@H](O)[C@@H](CO)O[C@@H]1O [N-Acetyl-D-glucosamine]
[1]; Well no.=6881
  remaining activity at 1.25 µM: 100%
[2]; Well no.=6881
  remaining activity at 3.75 µM: 95%

## CC(=O)N[C@@H](CS)C(=O)O [N-Acetyl-L-Cysteine]
[1]; Well no.=4
  remaining activity at 1.25 µM: 98.3%
[2]; Well no.=4
  remaining activity at 3.75 µM: 97.6%

## CC(=O)N[C@@H](CC(=O)O)C(=O)O [N-Acetyl-L-aspartic acid]
[1]; Well no.=6645
  remaining activity at 1.25 µM: 98.3%
[1]; Well no.=7690
  remaining activity at 1.25 µM: 101%
[2]; Well no.=6645
  remaining activity at 3.75 µM: 98.5%
[2]; Well no.=7690
  remaining activity at 3.75 µM: 96.5%

## CC(=O)N[C@@H](CC(C)C)C(=O)O [N-Acetyl-L-leucine]
[1]; Well no.=7596
  remaining activity at 1.25 µM: 97%
[2]; Well no.=7596
  remaining activity at 3.75 µM: 98.8%

## CC(=O)N[C@@H](Cc1ccc(O)cc1)C(=O)O [N-Acetyl-L-tyrosine]
[1]; Well no.=6677
  remaining activity at 1.25 µM: 105%
[1]; Well no.=8704
  remaining activity at 1.25 µM: 101%
[2]; Well no.=6677
  remaining activity at 3.75 µM: 104%
[2]; Well no.=8704
  remaining activity at 3.75 µM: 99.9%

## CCCCC/C=C\C\C=C/C=C/C=C/[C@@H](SCC(NC(C)=O)C(=O)O)[C@@H](O)CCCC(=O)O (stereo partly shown) [N-Acetyl-leukotriene E4]
[1]; Well no.=4435
  remaining activity at 1.25 µM: 101%
[2]; Well no.=4435
  remaining activity at 3.75 µM: 102%

## CC(=O)NCCc1ccc(O)c(O)c1 [N-Acetyldopamine monohydrate]
[1]; Well no.=56
  remaining activity at 1.25 µM: 98.3%
[2]; Well no.=56
  remaining activity at 3.75 µM: 101%

## CC(=O)NCC(=O)O [N-Acetylglycine]
[1]; Well no.=6779
  remaining activity at 1.25 µM: 96.3%
[2]; Well no.=6779
  remaining activity at 3.75 µM: 96%

## CC(=O)N[C@H]1[C@H]([C@H](O)[C@H](O)CO)OC(O)(C(=O)O)C[C@@H]1O (stereo partly shown) [N-Acetylneuraminic acid]
[1]; Well no.=6491
  remaining activity at 1.25 µM: 92.4%
[2]; Well no.=6491
  remaining activity at 3.75 µM: 94.5%

## CC(=O)N[C@@H](CCCN)C(=O)O [N-Acetylornithine]
[1]; Well no.=7731
  remaining activity at 1.25 µM: 102%
[1]; Well no.=8748
  remaining activity at 1.25 µM: 99.4%
[2]; Well no.=7731
  remaining activity at 3.75 µM: 104%
[2]; Well no.=8748
  remaining activity at 3.75 µM: 98.7%

## CCN(CC)CCNC(=O)c1ccc(NC(C)=O)cc1 [N-Acetylprocainamide hydrochloride]
[1]; Well no.=19
  remaining activity at 1.25 µM: 104%
[2]; Well no.=19
  remaining activity at 3.75 µM: 103%

## CC(=O)NCCc1c[nH]c2ccccc12 [N-Acetyltryptamine]
[1]; Well no.=100
  remaining activity at 1.25 µM: 97.2%
[2]; Well no.=100
  remaining activity at 3.75 µM: 96.6%
